{
  "source": "patent US20250295656A1",
  "about": "“COMBINATION OF LURBINECTEDIN AND IMMUNE CHECKPOINT INHIBITORS” (priority 2020, published 2025)",
  "key": {"[1]": {"tested_on": "Murine fibrosarcoma MCA205 cells", "assay": "In vitro cell death of MCA205 cells prepared for vaccination", "format": "cell-based, mouse", "settings": "1 μM lurbinectedin for 24 h"}, "[2]": {"tested_on": "U2OS cells stably expressing CALR-GFP", "assay": "CALR-GFP granularity (surrogate marker of CALR exposure)", "format": "cell-based, human", "settings": "lurbinectedin 1 nM to 1 μM, MTX 1 and 3 μM, 4-32 hours, vs untreated controls", "description": "(§1) (a) Human osteosarcoma U2OS (a), human breast cancer HCC70 (b) human colon cancer HT29 cells (c) and murine methylcholantrene-induced fibrosarcoma MCA205 cells (d) were treated with lurbinectedin (Lurbi, 1 nM, 10 nM, 100 nM and 1 μM) for the indicated times. Subsequently, the cells were stained with 1 μM Hoechst 33342 and 1 μM propidium iodide and assessed for the loss of viability by automated image acquisition. Images were segmented, cellular debris was excluded and the number of cells with normal nuclear morphology was enumerated. Cells stably expressing CALR-GFP were treated as above. Following the cells were fixed with 3.7% of PFA, stained with 1 μM Hoechst 33342 and assessed by automated image acquisition. Images were segmented, cellular debris was excluded and CALR-GFP granularity (a surrogate marker of CALR exposure) was evaluated in the cytoplasmic region of cells with normal nuclear morphology. Wild type cells were treated as above and then assessed for cytoplasmic quinacrine granularity (after staining with the ATP-sensitive dye quinacrine together with Hoechst 33342) by automated image acquisition, segmentation and analysis. Cells stably expressing HMGB1-GFP were treated as above and then assessed for nuclear HMGB1-GFP fluorescence intensity. The cells were fixed and stained with Hoechst 33342 and images were acquired, segmented and analyzed. […]"}, "[3]": {"tested_on": "U2OS biosensor cells expressing GFP under the MX1 promoter", "assay": "Type I IFN response (MX1-GFP biosensor cells treated with supernatant)", "format": "cell-based, human", "settings": "supernatant of treated U2OS cells after 48 hours fresh media; biosensor cells 48 hours; throughout all time points", "description": "In a systematic screening campaign, the capacity of lurbinectedin to induce immunogenic cell death in cancer cells was assessed in human osteosarcoma U2OS cells stably expressing fluorescent biosensors for the detection of CALR-relocation (as a surrogate marker for CALR surface exposure), HMGB1 release and Type I IFN responses together with U2OS WT cells stained with the ATP-sensitive dye quinacrine. […] The induction of cell death was evaluated based on changes in the nuclear morphology visualized by means of the DNA intercalating dye Hoechst 33342."}, "U2OS WT cells": {"tested_on": "U2OS WT cells", "assay": "Cytoplasmic quinacrine granularity (intracellular ATP, indicator of ATP release)", "format": "cell-based, human", "settings": "lurbinectedin 1 nM to 1 μM, MTX 1 and 3 μM, dose-dependent, decreased over time, vs untreated controls", "description": "as §1"}},
  "data": [
    {"molecule": "COc1ccc2[nH]c3c(c2c1)CCN[C@]31CS[C@@H]2c3c(OC(C)=O)c(C)c4c(c3[C@H](COC1=O)N1[C@@H]2[C@H]2c3c(cc(C)c(OC)c3O)C[C@@H]([C@@H]1O)N2C)OCO4", "note": "[lurbinectedin]", "values": [
      {"measurement": "cell death", "setting": "[1]", "result": "approximately 70%"},
      {"measurement": "CALR-granularity", "setting": "[2]", "result": "time- and dose-dependent increase"},
      {"measurement": "de novo GFP signal intensity (type 1 IFN response)", "setting": "[3]", "result": "significant increase"},
      {"measurement": "ATP signal (cytoplasmic quinacrine granularity)", "setting": "U2OS WT cells", "result": "significant decrease"}
    ]}
  ]
}
